Measured values from patent US4892736A, “Intra-pocket drug delivery devices for treatment of periodontal diseases” (The Forsyth Dental Infirmary for Children, priority 1988, dated 1990).
Structures can show the parent of a compound that is named as a salt.

System: cultivable periodontal microorganisms
Assay: Concentration of tetracycline necessary to suppress growth of all cultivable periodontal microorganisms (agar plates)
Format: cell-based
Details: anaerobic, 35° C., 5 to 7 days
Procedure: Samples containing periodontal organisms taken from deep periodontal pockets of 5 patients were transferred to 10 ml of pre-reduced Ringer's solution, dispersed by 10 seconds of sonic oscillation at an amplitude of 10 microns, and dilutions of 1:20, 1:100, and 1:1000 were prepared. One-tenth milliliter of each dilution was streaked on trypticase soy agar containing 5% sheep blood and 0.3 μg/ml menadione in petri dishes. Identical plates were prepared containing 1, 8, 32, and 64 micrograms/milliliter of tetracycline hydrochloride. Inoculated plates were incubated at 35° C. in an anaerobic atmosphere at 80% nitrogen, 10% hydrogen, and 10% carbon dioxide for 5 to 7 days. Plates from dilutions providing separated colony growth were selected for counting to determine the total colony forming units on primary medium and each associated tetracycline-containing medium. Percentages of organisms grown at each concentration were computed. Values of 21.2%, 3.6%, 0.08%, and 0% were found on plates containing 1, 8, 32, and 64 micrograms/milliliter tetracycline respectively. These observations indicate that no cultivable periodontal organisms grow at tetracycline concentrations of 64 micrograms/milliliter, thereby establishing the primary design parameter for a local drug delivery system for periodontal therapy which would suppress growth of all cultivable periodontal microorganisms with continuous exposure of the organisms to tetracycline.

In the case of `CN(C)C1C(=O)C(C(N)=O)=C(O)C2(O)C(=O)C3=C(O)c4c(O)cccc4C(C)(O)C3CC12` (centres unmarked) [tetracycline, tetracycline hydrochloride], the activity at 1 µg/mL (168 h, 1 microgram/milliliter tetracycline, % of colony forming units on primary medium, read-out: Percentage of organisms grown) is reported as 21.2%, the activity at 8 µg/mL (168 h, 8 micrograms/milliliter tetracycline, % of colony forming units on primary medium, read-out: Percentage of organisms grown) is reported as 3.6% and the activity at 32 µg/mL (168 h, 32 micrograms/milliliter tetracycline, % of colony forming units on primary medium, read-out: Percentage of organisms grown) is reported as 0.08%. For the same compound, the activity at 64 µg/mL (168 h, 64 micrograms/milliliter tetracycline, % of colony forming units on primary medium, read-out: Percentage of organisms grown) was 0% and the MIC (tested 1, 8, 32, 64 micrograms/milliliter, read-out: Concentration at which no cultivable periodontal organisms grow) was 64 mg/L.
